Laboratory results published in publication PMC8472512, “Synthesis and Biochemical Evaluation of Baicalein Prodrugs” (Pharmaceutics, 2021).

Tests used:
[1] = Stability in mouse plasma; format: in vitro ADME
Method: Working solutions of the test compounds (baicalein, enalapril, and compounds 1–7) prepared in 50 vol% aqueous MeOH at 40 μM were diluted in mouse plasma in triplicate to a final concentration of 1 μM. The mixtures were then incubated at 37 °C in a shaking water bath. A 50 μL aliquot was removed at 0 and 60 min from each incubation mixture followed by immediate mixing with 150 μL ice-cold MeOH containing 1 μg/mL glipizide as the internal standard (IS). The resulting mixtures, following a 5-min vortexing and sonication, were then centrifuged at 3000 rpm for 30 min at 4 °C. The supernatant was analyzed by Agilent 6460 QQQ LC−MS/MS system in a positive multiple reaction monitoring (MRM) mode. Gradient elution was conducted on an Agilent Eclipse Plus C18 column (100 × 2.1 mm, 3.5 µm) at 40 °C with 0.1 vol% formic acid in deionized water and 0.1 vol% formic acid in acetonitrile running at 0.45 mL/min. MRM transitions of the analytes were set as follows: baicalein: m/z 271→123, enalapril: m/z 377→234, 1: m/z 428→271, 2: m/z 414→271, 3: m/z 428→271, 4: m/z 416→271, 5: m/z 462→271, 6: m/z 386→271, 7: m/z 372→271, and glipizide: m/z 446→321. The analytical data were analyzed using Agilent MassHunter Quantitative Analysis Software (version B.05.00). Peak area ratios of the analytes vs. IS on the MRM chromatograms were used to calculate % remaining at 60 min.

in vitro = settings: PAMPA
Method: The assay was conducted as reported previously [15]. The samples were analyzed as described below in mouse plasma stability assay.

Mouse pharmacokinetics = format: in vivo, male ICR mice; settings: for AUC(0-t) / Cmax / Tmax / AUC(0-inf) / half-life: male, ICR, mouse
Method: Pharmacokinetic studies were conducted with male ICR mice (8 weeks old; 30–35 g body wt.) purchased from Koatech Company (Pyeongtaek, Korea), as reported previously. Intravenous dosing solutions were prepared in EtOH/20% aqueous HPβCD (10/90 vol%) at 2 and 3 mg/mL for baicalein and compound 2, respectively. Oral dosing solutions were prepared in EtOH/tween 80/20% aqueous HPβCD (10/10/80 vol%) at 1 and 1.5 mg/mL for baicalein and compound 2, respectively. Plasma sample analysis was performed as described above in mouse plasma stability assay.

[2] = logD7.4 by shake-flask method; format: physicochemical; settings: 1-octanol / 0.1 M potassium phosphate buffer, 0.1 M phosphate buffer (pH 7.4), duplicate
Method: The assay was conducted as reported previously. Briefly, 100 µM test solutions were prepared by diluting 10 mM stock solutions of the test compounds (baicalein and compounds 1–7) in 0.1 M potassium phosphate buffer (pH 7.4) saturated with 1-octanol. Standard solutions were prepared by diluting each test solution with the same volume of DMSO in HPLC vials. Partition solutions were prepared by mixing each test solution and 1-octanol saturated with 0.1 M potassium phosphate buffer (pH 7.4) at three different volume ratios, namely 1:0.02, 1:0.2 and 1:2, in HPLC vials. The partition solutions were then vortexed for 1 h at 1500 rpm at rt. The standard solutions and the aqueous phase (bottom layer) of each partition solution were analyzed directly from the HPLC vials as described above in Chemical stability assay. The logD7.4 values were calculated by the following equation: logD7.4=log(2×As/Ap−1)·Vt/Vo where As and Ap are, respectively, the peak areas of the standard and the aqueous phase of the partition solutions and Vt and Vo the volumes of test solution and 1-octanol of the partition solutions.

[3] = Chemical stability in physiologically-relevant solutions; format: physicochemical; settings: 37 °C; for remaining at 4 h, 10 μM: at 4 h vs time 0
Method: Stock solutions of the test compounds (baicalein, compounds 1–7) prepared in MeOH at 10 mM were diluted in 0.1 N HCl and 0.1 M potassium phosphate buffer (pH 6.5 and 7.4) in triplicate to a final concentration of 10 μM. The mixtures were then incubated at 37 °C in a shaking water bath. Samples taken at 0, 1, 2, 3 and 4 h were analyzed by Thermo UltiMate 3000 series HPLC system. Chromatographic separation was performed on an Agilent Eclipse Plus C18 column (100 × 4.6 mm, 3.5 µm) kept at 40 °C with isocratic elution at a flow rate of 0.6 mL/min using a mixture of 0.1 vol% TFA in deionized water and acetonitrile as the mobile phase. The detection wavelengths were 277 and 270 nm for baicalein and compounds 1–7, respectively. Peak areas of the analytes on the UV chromatograms were used to calculate % remaining values at each time points.
The stability of baicalein and of the synthesized carbamate prodrugs (1–7) was determined in solutions mimicking gastric (0.1 N HCl, pH ~ 1), intestinal (pH 6.5 phosphate buffer), and physiological (pH 7.4 phosphate buffer) conditions. […]. […] […]. The degradation of the carbamate prodrugs was accompanied by the formation of baicalein under all conditions in this study (data not shown). Although the exact reason for this pH-dependent stability remains unknown, it is plausible that the side chains of amino acids somehow affect the hydrolysis of the carbamate bond of the prodrugs.

[4] = Metabolic stability in mouse liver S9 fractions; format: in vitro ADME; settings: presence of the cofactor mixture (NADPH, UDPGA, PAPS, GSH), 37 °C, 60 min
Method: Working solutions of the test compounds (baicalein, 7-EC, and compounds 1–7) prepared in 50 vol% aqueous MeOH at 120 μM were added in triplicate to a 200 mM tris buffer (pH 7.4) containing mouse liver S9 fractions (1 mg protein/mL), alamethicin (25 μg/mL) and MgCl2 (2 mM). The final concentration of test compound was 3 μM. This mixture was pre-incubated at 37 °C in a shaking water bath for 5 min followed by addition of a cofactor mixture to following final concentrations: 1 mM NADPH, 0.5 mM UDPGA, 0.1 mM PAPS and 2.5 mM GSH. A 50 μL aliquot was taken at 0, 15, 30 and 60 min from each incubation mixture. These samples were then treated in the same way as described above in Mouse plasma stability assay. The supernatant was analyzed by Agilent 6530 Q−TOF LC−MS/MS system in a positive auto MS/MS scan mode. The liquid chromatography was conducted in the same condition as described above in mouse plasma stability assay. The analytical data were analyzed using Agilent MassHunter Quantitative Analysis Software (version B.05.00). MS chromatograms were extracted using calculated exact masses ([M+H]^+) for the analytes. Peak area ratios of the analytes vs. IS on the extracted MS chromatograms were used to calculate % remaining values at each time points.

[5] = iv, plasma analyte after single i.v. dose of baicalein 10 mg/kg, mice
[6] = iv, plasma analyte after single i.v. dose of compound 2 15 mg/kg, mice
[7] = po, plasma analyte after single p.o. dose of compound 2 50 mg/kg, mice

O=c1cc(-c2ccccc2)oc2cc(O)c(O)c(O)c12 [Baicalein, 5,6,7-trihydroxy-2-phenyl-4H-1-benzopyran-4-one]
remaining at 1 h, 1 μM ([1]; mouse, plasma): > 85% | Papp (in vitro): 5.75 ± 0.14 ×10⁻⁶ cm/s | time plasma analyte was above the quantitation limit (Mouse pharmacokinetics; after i.v. dose of compound 2 (approximately equimolar to 10 mg/kg baicalein), mice): 8 h | time plasma analyte was above the quantitation limit (Mouse pharmacokinetics; after p.o. administration of compound 2, mice): 8 h | time plasma analyte was above the quantitation limit (Mouse pharmacokinetics; after single i.v. dose of 10 mg/kg baicalein, mice): up to 15 min | time plasma analyte was above the quantitation limit (Mouse pharmacokinetics; after single p.o. dose of 10 mg/kg baicalein, mice, 24 h time course): below the quantitation limit | AUC(0-t) (Mouse pharmacokinetics; [5]): 1090 ± 640 ng·h/mL | Cmax (Mouse pharmacokinetics; [5]): 1470 ± 330 ng/mL | Tmax (Mouse pharmacokinetics; [5]): 0.1 h | AUC(0-inf) (Mouse pharmacokinetics; [6]): 4390 ± 1570 ng·h/mL | AUC(0-t) (Mouse pharmacokinetics; [6]): 4240 ± 1430 ng·h/mL | Cmax (Mouse pharmacokinetics; [6]): 4190 ± 450 ng/mL | Tmax (Mouse pharmacokinetics; [6]): 0.1 h | half-life (Mouse pharmacokinetics; [6]): 1.5 ± 0.3 h | AUC(0-inf) (Mouse pharmacokinetics; [7]): 540 ± 150 ng·h/mL | AUC(0-t) (Mouse pharmacokinetics; [7]): 450 ± 140 ng·h/mL | Cmax (Mouse pharmacokinetics; [7]): 230 ± 90 ng/mL | Tmax (Mouse pharmacokinetics; [7]): 0.3 ± 0.09 h | half-life (Mouse pharmacokinetics; [7]): 2.6 ± 1.5 h | logD [2]: 2.14 | half-life at 10 μM ([3]; 0.1 M potassium phosphate buffer, pH 6.5 buffer (0.1 M potassium phosphate)): > 4 h | remaining at 4 h, 10 μM ([3]; 0.1 M potassium phosphate buffer, pH 6.5 buffer): 101 ± 2.8% | half-life at 10 μM ([3]; 0.1 M potassium phosphate buffer, pH 7.4 buffer (0.1 M potassium phosphate)): > 4 h | remaining at 4 h, 10 μM ([3]; 0.1 M potassium phosphate buffer, pH 7.4 buffer): 65.8 ± 2.6% | half-life at 10 μM ([3]; pH 1, 0.1 N HCl, 10 μM): > 4 h | remaining at 4 h, 10 μM ([3]; pH 1, 0.1 N HCl): 104 ± 4.1% | metabolism in mouse liver S9 fractions [4]: rapidly metabolized

CCOC(=O)[C@H](CCc1ccccc1)N[C@@H](C)C(=O)N1CCC[C@H]1C(=O)O [Enalapril, enalapril]
% remaining in mouse plasma ([1]; 60 min incubation at 37 °C, 1 μM): degraded
